test system: Mouse astrocytes; assay: Cell proliferation assay (BrdU method) on mouse astrocytes; assay type: cell-based; settings: Astrocyte; mouse astrocytes, compound concentration 50 μM, 24 hours treatment in serum-free DMEM, BrdU; read-out: Cell proliferation activity, proliferative activity (%)
Experimental: A screening test regarding the mouse astrocyte proliferation action of the compound synthesized in the Example described above was performed.
• Cells: Mouse astrocytes • Manufacturer: Cosmo Bio • Catalog No.: AST02C • Medium: 10% FBS, 1% PS, DMEM
• Cell proliferation assay (BrdU method)
Mouse astrocytes were put into sleep in a T-75 flask using a medium (10% FBS, 1% Penicillin-Streptomycin, DMEM (Low Glucose)) and cultured in a CO2 incubator (37° C., 5% CO2, ambient O2, wet, and the same applies below) for 4 days. Medium exchange was performed on the second day after sleep onset. The cells were detached using Trypsin-EDTA (0.05%) and phenol red, neutralized with a medium, and centrifuged (180×g, RT, 5 minutes), then seeded in a 96-well plate at 20,000 cells/0.1 mL/well using a medium, and cultured in a CO2 incubator. On the next day, the medium was replaced with serum-free DMEM (Low Glucose), and the cells were further cultured in a CO2 incubator for 24 hours.
Next, the medium was replaced with serum-free DMEM (Low Glucose) to which the compound was added or with compound-free-serum-free DMEM (Low Glucose), and the cells were further cultured in a CO2 incubator for 24 hours to treat the cells with the compound.
After completion of the compound treatment, cell proliferation assay was performed using Cell Proliferation ELISA, BrdU (colometric) (MERCK, Cat. No. 11647229001). 10 μL of a BrdU labeling solution (prepared by adding a BrdU-labeled reagent to a test substance-treated medium in an amount of 1/100 vol) was added thereto, and the mixture was cultured in a CO2 incubator for 4 hours. Next, after removing the medium, FixDenat was added at 200 μL/well and incubated at room temperature for 30 minutes. Next, FixDenat was removed and a POD-labeled anti-BrdU antibody reaction solution (prepared by adding 1/100 vol of a POD-labeled anti-BrdU antibody stock solution to an antibody diluent) was added at 100 μL/well, and the cells were incubated at room temperature for 2 hours. Next, antibodies were removed, and the wells were washed 3 times with 200 μL/well of a washing liquid. After washing, 100 μL/well of a substrate solution was added, incubation was performed at room temperature for 30 minutes, and an absorbance (370 nm, control wavelength 492 nm) was measured with a plate reader. A difference between the test substance-free group and the test substance-treated group was verified by Dunnett's test in which the test substance-free group was used as a control. The significance level was 5% for both groups.

Row | Compound | activity at 50 µM [%]
1 | CN[C@H]1Cc2ccc(O)c(c2)OC[C@@H](C(=O)N[C@@H](CCC(=O)O)C(=O)O)NC(=O)[C@H](C(C)C)NC1=O [Compound 5] | 90 to 110

same assay, conditions: Astrocyte; mouse astrocytes, compound concentration 100 μM, 24 hours treatment in serum-free DMEM, BrdU; read-out: Cell proliferation activity, proliferative activity (%)

Row | Compound | activity at 100 µM [%]
2 | CC(C)[C@@H]1NC(=O)[C@@H](N)Cc2ccc(O)c(c2)OC[C@@H](C(=O)N[C@@H](CCC(=O)O)C(=O)O)NC1=O [Compound 8] | 90 to 110

same assay, conditions: Astrocyte; mouse astrocytes, compound concentration 200 μM, 24 hours treatment in serum-free DMEM, BrdU; read-out: Cell proliferation activity, proliferative activity (%)

Row | Compound | activity at 200 µM [%]
3 | CN[C@H]1Cc2ccc(O)c(c2)OC[C@@H](C(=O)N[C@@H](CC(=O)O)C(=O)O)NC(=O)CNC1=O [Compound 11] | 110 to 130
4 | CN[C@H]1Cc2ccc(O)c(c2)OC[C@@H](C(=O)N[C@@H](CCC(=O)O)C(=O)O)NC(=O)CNC1=O [Compound 3] | 90 to 110

same assay, conditions: Astrocyte; mouse astrocytes, compound concentration 400 μM, 24 hours treatment in serum-free DMEM, BrdU; read-out: Cell proliferation activity, proliferative activity (%)

Row | Compound | activity at 400 µM [%]
5 | CN[C@H]1Cc2ccc(O)c(c2)O[C@@H](C)[C@@H](C(=O)N[C@@H](CC(=O)O)C(=O)O)NC(=O)CNC1=O [Compound 12] | 110 to 130
6 | CN[C@H]1Cc2ccc(O)c(c2)O[C@@H](C)[C@@H](C(=O)N[C@@H](CCC(=O)O)C(=O)O)NC(=O)CNC1=O [Compound 4] | 90 to 110
7 | N[C@H]1Cc2ccc(O)c(c2)OC[C@@H](C(=O)N[C@@H](CCC(=O)O)C(=O)O)NC(=O)CNC1=O [Compound 7] | 90 to 110

same assay, conditions: Mus musculus, Astrocyte, 24 h, read-out: Cell proliferation activity, proliferative activity (%)

Row | Compound | activity at 200 µM [%] | activity at 50 µM [%] | activity at 25 µM [%] | activity at 100 µM [%] | activity at 1000 µM [%]
8 | CC[C@@]1(C)Oc2cc(ccc2O)C[C@H](NC)C(=O)N[C@@H](C(C)C)C(=O)N[C@@H]1C(=O)N(C)[C@@H](CC(=O)O)C(=O)O [Compound 47] | 130 to 150 |  |  |  | 
9 | CC(C)[C@@H]1NC(=O)[C@@H](N)Cc2ccc(O)c(c2)OC(C)(C)[C@@H](C(=O)N[C@@H](CCC(=O)O)C(=O)O)NC1=O [Compound 19] | 110 to 130 |  |  |  | 
10 | CC[C@H](C)[C@@H]1NC(=O)[C@@H](NC)Cc2ccc(O)c(c2)O[C@](C)(CC)[C@@H](C(=O)N[C@@H](CCC(=O)O)C(=O)O)NC1=O [Compound 50] |  | 130 to 150 |  |  | 
11 | CC[C@@]1(C)Oc2cccc(c2)C[C@H](N)C(=O)NCC(=O)N[C@@H]1C(=O)N[C@@H](CCC(=O)O)C(=O)O [Compound 13] | 110 to 130 |  |  |  | 
12 | CC[C@@]1(C)Oc2cc(ccc2O)C[C@H](NC)C(=O)N[C@@H](C(C)C)C(=O)N[C@@H]1C(=O)N[C@@H](CC(=O)O)C(=O)O [Compound 9] | > 150 |  |  |  | 
13 | CC[C@@]1(C)Oc2cc(ccc2O)C[C@H](NC)C(=O)NCC(=O)N[C@@H]1C(=O)N[C@@H](CCC(=O)O)C(=O)O [Compound 2] |  |  | 110 to 130 |  | 
14 | CC[C@@]1(C)Oc2cc(ccc2O)C[C@H](NC)C(=O)N[C@@H](C(C)C)C(=O)N[C@@H]1C(=O)N[C@H](CC(=O)O)C(=O)O [Compound 21] |  | 90 to 110 |  |  | 
15 | CC[C@@]1(C)Oc2cc(ccc2O)C[C@H](NC)C(=O)N[C@@H](C(C)C)C(=O)N(C)[C@@H]1C(=O)N[C@@H](CCC(=O)O)C(=O)O [Compound 43] |  |  |  | 110 to 130 | 
16 | CC[C@@]1(C)Oc2cc(ccc2O)C[C@H](NC)C(=O)N[C@@H](CC(C)C)C(=O)N[C@@H]1C(=O)N[C@@H](CCC(=O)O)C(=O)O [Compound 49] | 110 to 130 |  |  |  | 
17 | CC[C@@]1(C)Oc2cc(ccc2O)C[C@H](N(C)C)C(=O)N[C@@H](CCC(=O)O)C(=O)N[C@@H]1C(=O)N[C@@H](CCC(=O)O)C(=O)O [Compound 40] |  | 90 to 110 |  |  | 
18 | CC[C@@]1(C)Oc2cc(ccc2O)C[C@H](NC)C(=O)N(C)[C@@H](C(C)C)C(=O)N[C@@H]1C(=O)N[C@@H](CCC(=O)O)C(=O)O [Compound 42] | 130 to 150 |  |  |  | 
19 | CC[C@@]1(C)Oc2cc(ccc2O)C[C@H](NC)C(=O)N[C@@H](CCC(=O)O)C(=O)N[C@@H]1C(=O)N[C@@H](CCC(=O)O)C(=O)O [Compound 25] |  | 90 to 110 |  |  | 
20 | CC[C@@]1(C)Nc2cc(ccc2O)C[C@H](NC)C(=O)N[C@@H](C(C)C)C(=O)N[C@@H]1C(=O)N[C@@H](CCC(=O)O)C(=O)O [Compound 22] | 90 to 110 |  |  |  | 
21 | CC[C@@]1(C)Oc2cc(ccc2O)C[C@H](NC)C(=O)N[C@@H]([C@@H](C)O)C(=O)N[C@@H]1C(=O)N[C@@H](CCC(=O)O)C(=O)O [Compound 28] |  | 110 to 130 |  |  | 
22 | CC[C@@]1(C)Oc2cc(ccc2O)C[C@H](NC)C(=O)N[C@@H](C(C)C)C(=O)N[C@@H]1C(=O)N[C@@H](CCC(=O)O)C(=O)O [Compound 1] |  |  | > 150 |  | 
23 | CC[C@@]1(C)Oc2cc(ccc2O)C[C@H](NC)C(=O)N[C@@H](C(C)C)C(=O)N(C)[C@@H]1C(=O)N[C@@H](CC(=O)O)C(=O)O [Compound 44] | 110 to 130 |  |  |  | 
24 | CC[C@@]1(C)Oc2cc(ccc2O)C[C@H](NC)C(=O)N[C@@H](C(C)C)C(=O)N[C@@H]1C(=O)NCCCC(=O)O [Compound 18] |  | 90 to 110 |  |  | 

Row | Compound | activity at 200 µM [%] | activity at 50 µM [%] | activity at 25 µM [%] | activity at 100 µM [%] | activity at 1000 µM [%]
25 | CC[C@@]1(C)Oc2cc(ccc2O)C[C@H](N)C(=O)N[C@@H](C(C)C)C(=O)N[C@@H]1C(=O)N[C@@H](CC(=O)O)C(=O)O [Compound 15] | 90 to 110 |  |  |  | 
26 | CC[C@@]1(C)Oc2cc(ccc2O)C[C@H](NC)C(=O)N[C@H](C(C)C)C(=O)N[C@@H]1C(=O)N[C@@H](CC(=O)O)C(=O)O [Compound 45] |  | 90 to 110 |  |  | 
27 | CC[C@@]1(C)Oc2cc(ccc2O)C[C@H](NC)C(=O)NCC(=O)N[C@@H]1C(=O)N[C@@H](CC(=O)O)C(=O)O [Compound 10] |  |  |  | 110 to 130 | 
28 | CN[C@H]1Cc2ccc(O)c(c2)OC(C)(C)[C@@H](C(=O)N[C@@H](CCC(=O)O)C(=O)O)NC(=O)[C@H](C(C)C)NC1=O [Compound 16] | 130 to 150 |  |  |  | 
29 | CC[C@@]1(C)Oc2cc(ccc2O)C[C@H](N(C)C)C(=O)N[C@@H](C(C)C)C(=O)N[C@@H]1C(=O)N[C@@H](CCC(=O)O)C(=O)O [Compound 23] |  |  |  |  | 130 to 150
30 | CC[C@@]1(C)Oc2cc(ccc2O)C[C@H](NC)C(=O)N[C@@H](CO)C(=O)N[C@@H]1C(=O)N[C@@H](CCC(=O)O)C(=O)O [Compound 27] | 90 to 110 |  |  |  | 
31 | CC[C@@]1(C)Oc2cc(ccc2O)C[C@H](N)C(=O)N[C@@H](C(C)C)C(=O)N[C@@H]1C(=O)N[C@@H](CCC(=O)O)C(=O)O [Compound 6] | 110 to 130 |  |  |  | 
32 | CC[C@@]1(C)Oc2cc(ccc2O)C[C@H](NC)C(=O)N[C@@H](CCCNC(=N)N)C(=O)N[C@@H]1C(=O)N[C@@H](CCC(=O)O)C(=O)O [Compound 31] |  |  |  | 110 to 130 | 
33 | CC[C@@]1(C)Oc2cc(ccc2O)C[C@H](NC)C(=O)N[C@@H](C)C(=O)N[C@@H]1C(=O)N[C@@H](CCC(=O)O)C(=O)O [Compound 48] |  |  |  | 110 to 130 | 
34 | CC[C@@]1(C)Oc2cc(ccc2O)C[C@H](NC)C(=O)N(C)[C@@H](C(C)C)C(=O)N[C@@H]1C(=O)N[C@@H](CC(=O)O)C(=O)O [Compound 41] |  | 90 to 110 |  |  | 
35 | CC[C@@]1(C)Oc2cccc(c2)C[C@H](NC)C(=O)N[C@@H](C(C)C)C(=O)N[C@@H]1C(=O)N[C@@H](CCC(=O)O)C(=O)O [Compound 14] | 110 to 130 |  |  |  | 
36 | CC[C@@]1(C)Oc2cc(ccc2O)C[C@H](N(C)C)C(=O)N[C@@H](C(C)C)C(=O)N[C@@H]1C(=O)N[C@@H](CC(=O)O)C(=O)O [Compound 39] |  |  |  | 130 to 150 | 
37 | CC[C@@]1(C)Oc2cc(ccc2O)C[C@H](NC)C(=O)N[C@@H](Cc2ccc(O)cc2)C(=O)N[C@@H]1C(=O)N[C@@H](CCC(=O)O)C(=O)O [Compound 29] | 90 to 110 |  |  |  | 
38 | CC[C@@]1(C)Oc2cc(ccc2OC)C[C@H](NC)C(=O)N[C@@H](C(C)C)C(=O)N[C@@H]1C(=O)N[C@@H](CCC(=O)O)C(=O)O [Compound 37] |  |  |  | 110 to 130 | 
39 | CC[C@@]1(C)Oc2cc(ccc2O)C[C@H](NC)C(=O)N[C@@H](Cc2ccccc2)C(=O)N[C@@H]1C(=O)N[C@@H](CCC(=O)O)C(=O)O [Compound 24] | 130 to 150 |  |  |  | 
40 | CN[C@H]1Cc2ccc(O)c(c2)OC(C)(C)[C@@H](C(=O)N[C@@H](CC(=O)O)C(=O)O)NC(=O)[C@H](C(C)C)NC1=O [Compound 17] |  |  | 90 to 110 |  | 
41 | CC[C@@]1(C)Oc2cc(ccc2O)C[C@H](NC)C(=O)N[C@@H](C(C)C)C(=O)N[C@@H]1C(=O)N[C@H](CCC(=O)O)C(=O)O [Compound 20] | 90 to 110 |  |  |  | 

From patent US20260035407A1, “CYCLIC PEPTIDE DERIVATIVE, METHOD FOR PRODUCING SAME, AND COMPOSITION” (priority 2022, published 2026)
